“And” between values parts separate entries of the source, which are not always exact repeats. Identical values can stand only once.
Tests used:
Format in all cases: in vivo
[1] = system: Rape; test: post-emergence herbicide test; conditions: post-emergence, 0.25 lb/A; read-out: % plant inhibition
Excerpt: (§1) Topsoil was placed in aluminum pans having holes in the bottom and compacted to a depth of 1.3 to 1.6 cm from the top of the pan. A predetermined number of seeds of each of several dicotyledonous and monocotyledonous annual plant species and/or vegetative propagules for the perennial plant species were placed on the soil and pressed into the soil surface. The seeds and/or vegetative propagules were covered with soil and leveled. The pans were then placed on a bench in the greenhouse and watered either from overheard irrigation or by subirrigation as needed. After the plants reach the desired age (two to three weeks), each pan, is removed individually to a spraying chamber and sprayed by means of an atomizer, operating at a spray pressure of 170.3 kPa […] at the application rates noted. In the spray solution was an amount of an emulsifying agent mixture to give a spray solution or suspension which contains about 0.4% by volume of the emulsifier. The spray solution or suspension contained a sufficient amount of the candidate chemical in order to give application rates of the active ingredient corresponding to those shown in Tables 4 and 5, while applying a total amount of solution or suspension equivalent to 1870 L/Ha (200 gallons/acre). […] The post-emergent herbicidal activity shown in these tables is the percent inhibition of each plant species. Testing with warm season and cool season plants is shown in tables 4a-4d and […], respectively.

[2] = system: Velvetleaf; test: post-emergence herbicide test; conditions: Abutilon theophrasti, post-emergence, 0.25 lb/A; read-out: % plant inhibition
Excerpt: as §1

[3] = system: Soybean; test: post-emergence herbicide test; conditions: Glycine max, post-emergence, 0.25 lb/A; read-out: % plant inhibition
Excerpt: as §1

[4] = system: Seedling Johnsongrass; test: post-emergence herbicide test; conditions: Sorghum halepense, post-emergence, 0.25 lb/A; read-out: % plant inhibition
Excerpt: as §1

[5] = system: Downy Brome; test: post-emergence herbicide test; conditions: Bromus tectorum, post-emergence, 0.25 lb/A; read-out: % plant inhibition
Excerpt: as §1

[6] = system: Common Chickweed; test: post-emergence herbicide test; conditions: post-emergence, 0.25 lb/A; read-out: % plant inhibition
Excerpt: as §1

[7] = system: Birdseye Speedwell; test: post-emergence herbicide test; conditions: post-emergence, 0.25 lb/A; read-out: % plant inhibition
Excerpt: as §1

[8] = system: Wild Oats; test: post-emergence herbicide test; conditions: Avena fatua, post-emergence, 0.25 lb/A; read-out: % plant inhibition
Excerpt: as §1

[9] = system: Corn; test: post-emergence herbicide test; conditions: Zea mays, post-emergence, 0.25 lb/A; read-out: % plant inhibition
Excerpt: as §1

[10] = system: Blackgrass; test: post-emergence herbicide test; conditions: Alopecurus myosuroides, post-emergence, 0.25 lb/A; read-out: % plant inhibition
Excerpt: as §1

[11] = system: Barnyardgrass; test: post-emergence herbicide test; conditions: Echinochloa crus-galli, post-emergence, 0.25 lb/A; read-out: % plant inhibition
Excerpt: as §1

[12] = system: Bedstraw Catchweed; test: post-emergence herbicide test; conditions: Galium aparine, post-emergence, 0.25 lb/A; read-out: % plant inhibition
Excerpt: as §1

[13] = system: Cocklebur; test: post-emergence herbicide test; conditions: Xanthium strumarium, post-emergence, 0.25 lb/A; read-out: % plant inhibition
Excerpt: as §1

[14] = system: Morning Glory; test: post-emergence herbicide test; conditions: Ipomoea, post-emergence, 0.25 lb/A; read-out: % plant inhibition
Excerpt: as §1

[15] = system: Wheat; test: post-emergence herbicide test; conditions: Triticum aestivum, post-emergence, 0.25 lb/A; read-out: % plant inhibition
Excerpt: as §1

[16] = system: Green Foxtail; test: post-emergence herbicide test; conditions: Setaria viridis, post-emergence, 0.25 lb/A; read-out: % plant inhibition
Excerpt: as §1

[17] = system: Giant Foxtail; test: post-emergence herbicide test; conditions: Setaria faberi, post-emergence, 0.25 lb/A; read-out: % plant inhibition
Excerpt: as §1

[18] = system: Rape; test: pre-emergence herbicide test; conditions: pre-emergence, 0.25 lb/A; read-out: % plant inhibition
Procedure: (§2) Topsoil was placed in an aluminum pan and compacted to a depth of 1.3 to 1.6 cm from the top of the pan. On the top of the soil was placed a predetermined number of seeds of each of several monocotyledonous and dicotyledonous annual plant species and/or vegetative propagules of various perennial plant species. The pan was then level filled with a cover layer of topsoil to which was added a known amount of active ingredient either prior to or after application of the cover layer. The active ingredient was dissolved or suspended in an organic solvent, e.g., acetone, or water as carrier for application to the cover layer. The pans were moved to a greenhouse bench where they were thereafter watered from below as needed to give adequate moisture for germination and growth. In some cases, an initial overhead irrigation of 1/4 inch of water was applied immediately after treatment.
(§3) Approximately 14 days after seeding and treating, the pans were observed and the results (% inhibition) were recorded.
(§4) The tables below summarize the results of the pre-emergence herbicidal activity tests of compounds of this invention tested with warm season plants (Tables 2a-2d) and cool season plants (Tables 3a and 3b). The herbicidal rating shown in these tables is the percent inhibition of each plant species. The plant species usually regarded as weeds are identified in the tables by single letter headings and crop species identified by two letter headings both headings being above the columns in accordance with the following legend: […]

[19] = system: Velvetleaf; test: pre-emergence herbicide test; conditions: 0.25 lb/A; for inhibition at 280.212 g/ha: Abutilon theophrasti, pre-emergence, read-out: % plant inhibition
Procedure: as §2, §3, §4

[20] = system: Soybean; test: pre-emergence herbicide test; conditions: Glycine max, pre-emergence, 0.25 lb/A; read-out: % plant inhibition
Procedure: as §2, §3, §4

[21] = system: Seedling Johnsongrass; test: pre-emergence herbicide test; conditions: 0.25 lb/A; for inhibition at 280.212 g/ha: Sorghum halepense, pre-emergence, read-out: % plant inhibition
Procedure: as §2, §3, §4

[22] = system: Downy Brome; test: pre-emergence herbicide test; conditions: Bromus tectorum, pre-emergence, 0.25 lb/A; read-out: % plant inhibition
Procedure: as §2, §3, §4

[23] = system: Common Chickweed; test: pre-emergence herbicide test; conditions: pre-emergence, 0.25 lb/A; read-out: % plant inhibition
Procedure: as §2, §3, §4

[24] = system: Birdseye Speedwell; test: pre-emergence herbicide test; conditions: pre-emergence, 0.25 lb/A; read-out: % plant inhibition
Procedure: as §2, §3, §4

[25] = system: Wild Oats; test: pre-emergence herbicide test; conditions: Avena fatua, pre-emergence, 0.25 lb/A; read-out: % plant inhibition
Procedure: as §2, §3, §4

[26] = system: Corn; test: pre-emergence herbicide test; conditions: 0.25 lb/A; for inhibition at 280.212 g/ha: Zea mays, pre-emergence, read-out: % plant inhibition
Procedure: as §2, §3, §4

[27] = system: Blackgrass; test: pre-emergence herbicide test; conditions: Alopecurus myosuroides, pre-emergence, 0.25 lb/A; read-out: % plant inhibition
Procedure: as §2, §3, §4

[28] = system: Barnyardgrass; test: pre-emergence herbicide test; conditions: 0.25 lb/A; for inhibition at 280.212 g/ha: Echinochloa crus-galli, pre-emergence, read-out: % plant inhibition
Procedure: as §2, §3, §4

[29] = system: Bedstraw Catchweed; test: pre-emergence herbicide test; conditions: Galium aparine, pre-emergence, 0.25 lb/A; read-out: % plant inhibition
Procedure: as §2, §3, §4

[30] = system: Cocklebur; test: pre-emergence herbicide test; conditions: 0.25 lb/A; for inhibition at 280.212 g/ha: Xanthium strumarium, pre-emergence, read-out: % plant inhibition
Procedure: as §2, §3, §4

[31] = system: Morning Glory; test: pre-emergence herbicide test; conditions: 0.25 lb/A; for inhibition at 280.212 g/ha: Ipomoea, pre-emergence, read-out: % plant inhibition
Procedure: as §2, §3, §4

[32] = system: Wheat; test: pre-emergence herbicide test; conditions: Triticum aestivum, pre-emergence, 0.25 lb/A; read-out: % plant inhibition
Procedure: as §2, §3, §4

[33] = system: Green Foxtail; test: pre-emergence herbicide test; conditions: Setaria viridis, pre-emergence; 0.25 lb/A; read-out: % plant inhibition
Procedure: as §2, §3, §4

[34] = system: Giant Foxtail; test: pre-emergence herbicide test; conditions: 0.25 lb/A; for inhibition at 280.212 g/ha: Setaria faberi, pre-emergence, read-out: % plant inhibition
Procedure: as §2, §3, §4

Row | Structure (SMILES) | inhibition at 280.212 g/ha [1] [%] | inhibition at 280.212 g/ha [2] [%] | inhibition at 280.212 g/ha [3] [%] | inhibition at 280.212 g/ha [4] [%] | inhibition at 280.212 g/ha [5] [%] | inhibition at 280.212 g/ha [6] [%] | inhibition at 280.212 g/ha [7] [%] | inhibition at 280.212 g/ha [8] [%] | inhibition at 280.212 g/ha [9] [%] | inhibition at 280.212 g/ha [10] [%] | inhibition at 280.212 g/ha [11] [%] | inhibition at 280.212 g/ha [12] [%] | inhibition at 280.212 g/ha [13] [%] | inhibition at 280.212 g/ha [14] [%] | inhibition at 280.212 g/ha [15] [%] | inhibition at 280.212 g/ha [16] [%] | inhibition at 280.212 g/ha [17] [%] | inhibition at 280.212 g/ha [18] [%] | inhibition at 280.212 g/ha [19] [%] | inhibition at 280.212 g/ha [21] [%] | other results
1 | Cn1nc(-c2cc(C(=O)O)c(Cl)cc2F)c(C=O)c1C(F)(F)F [Compound 3, 2-Chloro-4-fluoro-5-[4-formyl-1-methyl-5-(trifluoromethyl)-1H-pyrazol-3-yl]benzoic acid] | 10 | 85 | 15 | 0 | 0 | 25 | 75 | 5 | 2 | 0 | 0 | 15 | 65 | 25 | 8 | 10 | 0 | 5 | 25 | 25 | inhibition at 280.212 g/ha [20]: 20%; inhibition at 280.212 g/ha [22]: 0%; inhibition at 280.212 g/ha [23]: 0%; inhibition at 280.212 g/ha [24]: 0%; inhibition at 280.212 g/ha [25]: 5%; inhibition at 280.212 g/ha [26]: 0%; inhibition at 280.212 g/ha [27]: 5%; inhibition at 280.212 g/ha [28]: 15%; inhibition at 280.212 g/ha [29]: 5%; inhibition at 280.212 g/ha [30]: 5%; inhibition at 280.212 g/ha [31]: 60%; inhibition at 280.212 g/ha [32]: 0%; inhibition at 280.212 g/ha [33]: 30%; inhibition at 280.212 g/ha [34]: 5%
2 | CCCOC(=O)c1cc(-c2nn(C)c(C(F)(F)F)c2C)c(F)cc1Cl [Compound 19] | 15 | 90 | 50 | 50 | 25 | 50 | 55 | 20 | 20 | 20 | 65 | 60 | 75 | 35 | 10 | 20 | 65 | 50 | 90 | 95 | % plant inhibition [19]: 98%; % plant inhibition [21]: 85%; inhibition at 280.212 g/ha [22]: 40%; inhibition at 280.212 g/ha [23]: 100%; inhibition at 280.212 g/ha [24]: 100%; inhibition at 280.212 g/ha [25]: 75%; % plant inhibition [26]: 28%; inhibition at 280.212 g/ha [26]: 25%; inhibition at 280.212 g/ha [27]: 95%; % plant inhibition [28]: 95%; inhibition at 280.212 g/ha [28]: 98%; inhibition at 280.212 g/ha [29]: 80%; % plant inhibition [30]: 70%; inhibition at 280.212 g/ha [30]: 60%; inhibition at 280.212 g/ha [32]: 0%; inhibition at 280.212 g/ha [33]: 100%; % plant inhibition [34]: 100%; inhibition at 280.212 g/ha [34]: 99%
3 | CCOC(=O)c1cc(-c2nn(C)c(C(F)(F)F)c2C)c(F)cc1Cl [Compound 26, 2-chloro-5-[1,4-dimethyl-5-(trifluoromethyl)-1H-pyrazol-3-yl]-4-fluorobenzoic acid ethyl ester] | 60 | 99 | 75 | 50 | 45 | 85 | 85 | 35 | 25 | 35 | 95 | 60 | 85 | 50 | 17 | 60 | 45 | 40 | 100 | 100 | inhibition at 280.212 g/ha [22]: 55%; inhibition at 280.212 g/ha [23]: 100%; inhibition at 280.212 g/ha [24]: 100%; inhibition at 280.212 g/ha [25]: 65%; inhibition at 280.212 g/ha [27]: 95%; inhibition at 280.212 g/ha [28]: 100%; inhibition at 280.212 g/ha [29]: 50%; % plant inhibition [30]: 93% and 92%; inhibition at 280.212 g/ha [30]: 85%; % plant inhibition [31]: 97% and 98%; inhibition at 280.212 g/ha [31]: 90%; inhibition at 280.212 g/ha [32]: 0%; inhibition at 280.212 g/ha [33]: 100%; % plant inhibition [34]: 100%; inhibition at 280.212 g/ha [34]: 99%
